Drawing on patent US5314901A, “1,2,5,6-tetrahydropyridine oxime compounds” (Beecham Group p.l.c., priority 1990, dated 1994), this text covers IC50 for eleven molecules.

Test [1] has as its target muscarinic receptors (3H-QNB), cerebral cortex. The experiment in a line: Radio ligand binding: displacement of the muscarinic antagonist 3H-Quinuclidinyl Benzilate (3H-QNB) from rat cerebral cortex membranes. The conditions noted are these: displacement of 0.27 nM 3H-QNB (muscarinic antagonist), 37° C., 30 min. Also on record: species or system Hooded Lister rats.
The target of test [2] is muscarinic receptors (3H-OXO-M), cerebral cortex. The experiment in a line: Radio ligand binding: displacement of the muscarinic agonist 3H-Oxotremorine-M (3H-OXO-M) from rat cerebral cortex membranes. The conditions noted are these: displacement of 2 nM 3H-OXO-M (muscarinic agonist), 2 mM magnesium chloride, 37° C., 30 min. Also on record: species or system Hooded Lister rats.

Each structure is given as a SMILES string. Structures can show the parent of a compound that is named as a salt.

Take `CON=C(F)C1=CCCNC1` [E 8, 1,2,5,6-Tetrahydropyridin-3-yl-N-methoxycarboximidoyl fluoride oxalate salt]: the IC50 – broadly, the concentration needed to halve the response being measured – is 2850 nM in test [1] and 41 nM in test [2].
`CON=C(Cl)C1=CCCN(C)C1` [E 1, 1-Methyl-1,2,5,6-tetrahydropyridin-3-yl-N-methoxycarboximidoyl chloride oxalate salt]: the IC50 in test [1] worked out at 2800 nM; in test [2], 259 nM.
The corresponding values for `CO/N=C(\CF)C1=CCCNC1` [E 7, Z-3-(α-Fluoroacetyl)-1,2,5,6-tetrahydropyridine-O-methyl oxime hydrochloride salt] are 17000 nM and 420 nM.
`CON=C(C#N)C1=CCCNC1` [E 10, α-(Methoxyimino)-α-(1,2,5,6-tetrahydropyridin-3-yl)acetonitrileoxalate salt]: the IC50 turned out to be 1150 nM in test [1] and 35 nM in test [2].
The like results for `CON=C(C1=CCCN(C)C1)C(F)(F)F` [E 4, E- and Z-1-Methyl-3-(α,α,α-trifluoroacetyl)-1,2,5,6-tetrahydropyridine-O-methyl oxime oxalate salt] were, in that order, 16500 nM and 225 nM.
Molecule `CON=C(C1=CCCN(C)C1)C(F)F` [E 5, E- and Z-1-Methyl-3-(α,α-difluoroacetyl)-1,2,5,6-tetrahydropyridine-O-methyl oxime oxalate salt] had an IC50 in test [2] of 1250 nM. That is a single-digit micromolar value.
Regarding `CON=C(Cl)C1=CCCNC1` [E 9, 1,2,5,6-Tetrahydropyridin-3-yl-N-methoxycarboximidoyl chloride oxalate salt], the IC50 in test [1] amounted to 4700 nM; in test [2], 180 nM.
As to `CCN1CCC=C(C(C#N)=NOC)C1` [E 11, α-(Methoxyimino)-α-(1-ethyl-1,2,5,6-tetrahydropyridin-3-yl) acetonitrile oxalate salt], in test [2], the IC50 came out at 1180 nM.
With `CON=C(F)C1=CCCN(C)C1` [E 2, 1-Methyl-1,2,5,6-tetrahydropyridin-3-yl-N-methoxycarboximidoyl fluoride oxalate salt], the IC50 in test [1] is 1500 nM; in test [2], 39 nM.
As for `CO/N=C(\CF)C1=CCCN(C)C1` [E 6, Z-1-Methyl-3-(α-fluoroacetyl)-1,2,5,6-tetrahydropyridine-O-methyl oxime oxalate salt], the values for the IC50 in test [1] and in test [2] were 8500 nM and 620 nM, respectively.
As for `CON=C(C#N)C1=CCCN(C)C1` [E 3, α-(Methoxyimino)-α-(1-methyl-1,2,5,6-tetrahydropyridin-3-yl) acetonitrile oxalate salt], the results for the IC50 in test [1] and in test [2] were 9500 nM and 215 nM, respectively.
